From PubChem BioAssay AID1963850 (Molecular Pharmacology Branch, DTP, NCI, 2024)

Test system: 192522-019-R-J2-PDC complex tumor spheroid viability
Assay: Anticancer human tumor 192522-019-R-J2-PDC patient-derived colon adenocarcinoma cell line growth inhibition [POLQ]
Details: for IC50: curve of first compound; for viability, T/C: stronger effect = lower value
In short: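 Growth inhibition in 3D: complex spheroids (tumor PDC, HUVEC, MSC) treated with POLQ inhibitor combinations; where Cmax unknown, highest tested concentration 10 microM, except SN-38 at 1 microM.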

[1] = second compound 0.0316 µM, first compound 0.0316 µM
[2] = second compound 0.0316 µM, first compound 0.1 µM
[3] = second compound 0.0316 µM, first compound 0.316 µM
[4] = second compound 0.0316 µM, first compound 1 µM
[5] = second compound 0.0316 µM, first compound 3.16 µM
[6] = second compound 0.0316 µM, first compound 10 µM
[7] = second compound 0.1 µM, first compound 0.0316 µM
[8] = second compound 0.1 µM, first compound 0.1 µM
[9] = second compound 0.1 µM, first compound 0.316 µM
[10] = second compound 0.1 µM, first compound 1 µM
[11] = second compound 0.1 µM, first compound 3.16 µM
[12] = second compound 0.1 µM, first compound 10 µM
[13] = second compound 0.316 µM, first compound 0.0316 µM
[14] = second compound 0.316 µM, first compound 0.1 µM
[15] = second compound 0.316 µM, first compound 0.316 µM
[16] = second compound 0.316 µM, first compound 1 µM
[17] = second compound 0.316 µM, first compound 3.16 µM
[18] = second compound 0.316 µM, first compound 10 µM
[19] = second compound 1 µM, first compound 0.0316 µM
[20] = second compound 1 µM, first compound 0.1 µM
[21] = second compound 1 µM, first compound 0.316 µM
[22] = second compound 1 µM, first compound 1 µM
[23] = second compound 1 µM, first compound 3.16 µM
[24] = second compound 1 µM, first compound 10 µM
[25] = second compound 3.16 µM, first compound 0.0316 µM
[26] = second compound 3.16 µM, first compound 0.1 µM
[27] = second compound 3.16 µM, first compound 0.316 µM
[28] = second compound 3.16 µM, first compound 1 µM
[29] = second compound 3.16 µM, first compound 3.16 µM
[30] = second compound 3.16 µM, first compound 10 µM
[31] = second compound 10 µM, first compound 0.0316 µM
[32] = second compound 10 µM, first compound 0.1 µM
[33] = second compound 10 µM, first compound 0.316 µM
[34] = second compound 10 µM, first compound 1 µM
[35] = second compound 10 µM, first compound 3.16 µM
[36] = second compound 10 µM, first compound 10 µM
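Further: spheroids exposed to drugs for seven days before reading.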
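Wherever viability, T/C is given: 100% = DMSO vehicle control viability in luminescence.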

Compound: CNCc1ccc(-c2[nH]c3cc(F)cc4c3c2CCNC4=O)cc1 + Nc1ccc(C#CCN(C(=O)Cc2ncc(C(F)(F)F)cc2C(F)(F)F)c2ccc(F)cc2)nn1
- IC50 (second compound 0.0316 µM): > 10 µM
- IC50 (second compound 0.1 µM): > 10 µM
- IC50 (second compound 0.316 µM): > 10 µM
- IC50 (second compound 1 µM): > 10 µM
- IC50 (second compound 3.16 µM): > 10 µM
- IC50 (second compound 10 µM): > 10 µM
- viability, T/C [1]: 103%
- viability, T/C [2]: 106%
- viability, T/C [3]: 102%
- viability, T/C [4]: 113%
- viability, T/C [5]: 122%
- viability, T/C [6]: 111%
- viability, T/C [7]: 105%
- viability, T/C [8]: 98.7%
- viability, T/C [9]: 110%
- viability, T/C [10]: 102%
- viability, T/C [11]: 104%
- viability, T/C [12]: 105%
- viability, T/C [13]: 107%
- viability, T/C [14]: 106%
- viability, T/C [15]: 96.5%
- viability, T/C [16]: 103%
- viability, T/C [17]: 106%
- viability, T/C [18]: 107%
- viability, T/C [19]: 119%
- viability, T/C [20]: 100%
- viability, T/C [21]: 105%
- viability, T/C [22]: 104%
- viability, T/C [23]: 111%
- viability, T/C [24]: 107%
- viability, T/C [25]: 103%
- viability, T/C [26]: 108%
- viability, T/C [27]: 95.3%
- viability, T/C [28]: 104%
- viability, T/C [29]: 110%
- viability, T/C [30]: 101%
- viability, T/C [31]: 108%
- viability, T/C [32]: 101%
- viability, T/C [33]: 105%
- viability, T/C [34]: 102%
- viability, T/C [35]: 110%
- viability, T/C [36]: 106%

Compound: CNCc1ccc(-c2[nH]c3cc(F)cc4c3c2CCNC4=O)cc1 + Cc1cccc(N(C)C(=O)C2C(O)CCN2c2nc(C)cc(C(F)(F)F)c2C#N)c1
- IC50 (second compound 0.0316 µM): > 10 µM
- IC50 (second compound 0.1 µM): > 10 µM
- IC50 (second compound 0.316 µM): > 10 µM
- IC50 (second compound 1 µM): > 10 µM
- IC50 (second compound 3.16 µM): > 10 µM
- IC50 (second compound 10 µM): > 10 µM
- viability, T/C [1]: 109%
- viability, T/C [2]: 96.2%
- viability, T/C [3]: 96.8%
- viability, T/C [4]: 100%
- viability, T/C [5]: 121%
- viability, T/C [6]: 91.2%
- viability, T/C [7]: 103%
- viability, T/C [8]: 104%
- viability, T/C [9]: 112%
- viability, T/C [10]: 108%
- viability, T/C [11]: 101%
- viability, T/C [12]: 111%
- viability, T/C [13]: 101%
- viability, T/C [14]: 113%
- viability, T/C [15]: 111%
- viability, T/C [16]: 103%
- viability, T/C [17]: 106%
- viability, T/C [18]: 102%
- viability, T/C [19]: 108%
- viability, T/C [20]: 115%
- viability, T/C [21]: 103%
- viability, T/C [22]: 112%
- viability, T/C [23]: 104%
- viability, T/C [24]: 110%
- viability, T/C [25]: 113%
- viability, T/C [26]: 113%
- viability, T/C [27]: 102%
- viability, T/C [28]: 102%
- viability, T/C [29]: 122%
- viability, T/C [30]: 110%
- viability, T/C [31]: 107%
- viability, T/C [32]: 106%
- viability, T/C [33]: 112%
- viability, T/C [34]: 107%
- viability, T/C [35]: 113%
- viability, T/C [36]: 108%

Compound: C#Cc1c(F)ccc2cc(O)cc(-c3ncc4c(N5CC6CCC(C5)N6)nc(OCC56CCCN5CC(F)C6)nc4c3F)c12 (stereo unspecified) + Nc1ccc(C#CCN(C(=O)Cc2ncc(C(F)(F)F)cc2C(F)(F)F)c2ccc(F)cc2)nn1
- IC50 (second compound 0.0316 µM): > 10 µM
- IC50 (second compound 0.1 µM): > 10 µM
- IC50 (second compound 0.316 µM): > 10 µM
- IC50 (second compound 1 µM): > 10 µM
- IC50 (second compound 3.16 µM): > 10 µM
- IC50 (second compound 10 µM): > 10 µM
- viability, T/C [1]: 93.8%
- viability, T/C [2]: 88.8%
- viability, T/C [3]: 78.2%
- viability, T/C [4]: 80.9%
- viability, T/C [5]: 67.9%
- viability, T/C [6]: 68.5%
- viability, T/C [7]: 92.8%
- viability, T/C [8]: 89.3%
- viability, T/C [9]: 72.7%
- viability, T/C [10]: 80.8%
- viability, T/C [11]: 74.5%
- viability, T/C [12]: 73.3%
- viability, T/C [13]: 88.8%
- viability, T/C [14]: 82.3%
- viability, T/C [15]: 75.3%
- viability, T/C [16]: 69.7%
- viability, T/C [17]: 68.2%
- viability, T/C [18]: 76.2%
- viability, T/C [19]: 89.5%
- viability, T/C [20]: 76.2%
- viability, T/C [21]: 78.7%
- viability, T/C [22]: 77.8%
- viability, T/C [23]: 78%
- viability, T/C [24]: 70.7%
- viability, T/C [25]: 97.9%
- viability, T/C [26]: 81.7%
- viability, T/C [27]: 71.7%
- viability, T/C [28]: 73.2%
- viability, T/C [29]: 78.4%
- viability, T/C [30]: 70.4%
- viability, T/C [31]: 91.9%
- viability, T/C [32]: 79.5%
- viability, T/C [33]: 80.2%
- viability, T/C [34]: 77.2%
- viability, T/C [35]: 73.7%
- viability, T/C [36]: 79.8%
